Reference: patent publication US7608619B2, “Substituted oxazole compounds with analgesic activity” (Gruenenthal GmbH, priority 2005, dated 2009)

Target: T1, human μ-opiate receptor (Homo sapiens, UniProt P35372)
T1 construct: purchased Nen company, Zaventem, Belgium RB-HOM; host or cells: CHO-K1 cells (membrane preparation)
Assay: Affinity for the human μ-opiate receptor ([3H]-naloxone displacement, SPA, CHO-K1 membrane preparation)
Conditions: test substance 1 μmole/l, displacement of 1 nmole/l [3H]-naloxone, percentage inhibition of the specific binding; for inhibition at 1 µM: read-out: μ-opioid receptor, % inhibition [1 μM]
Procedure, shortened: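 [3H]-naloxone (1 nmol/l) displacement by SPA with WGA beads, using membranes of CHO-K1 cells expressing the receptor, in 50 mmol/l Tris-HCl with 0.05% azide and 0.06% BSA; 90 min at room temperature. Non-specific binding defined with 25 μmol/l naloxone. Value is % inhibition of specific binding at 1 μmol/l test compound.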

T1 sequence (P35372 whole entry): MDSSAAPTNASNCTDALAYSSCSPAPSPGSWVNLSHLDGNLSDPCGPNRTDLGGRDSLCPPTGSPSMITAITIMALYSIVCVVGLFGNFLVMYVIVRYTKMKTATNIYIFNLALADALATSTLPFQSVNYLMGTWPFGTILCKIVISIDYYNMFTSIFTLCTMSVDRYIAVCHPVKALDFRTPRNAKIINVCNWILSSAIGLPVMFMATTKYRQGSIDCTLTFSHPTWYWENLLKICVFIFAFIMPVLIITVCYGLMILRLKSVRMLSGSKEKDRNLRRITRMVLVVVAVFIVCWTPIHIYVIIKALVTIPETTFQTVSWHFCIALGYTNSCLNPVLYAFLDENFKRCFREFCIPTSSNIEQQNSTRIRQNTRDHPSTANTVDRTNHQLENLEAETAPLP

Structure (SMILES)	inhibition at 1 µM	μ-opioid receptor, % inhibition [1 μM]
CN(C)C(c1cccc(F)c1)C1CCC(C(c2nc(Cc3ccccc3)c(N3CCCC3)o2)N2CCN(c3ccc(F)cc3)CC2)CC1 (stereo not shown) [compound 122, [(4-{(4-benzyl-5-pyrrolidin-1-yl-oxazol-2-yl)-[4-(4-fluorophenyl)-piperazin-1-yl]-methyl}-cyclohexyl)-(3-fluorophenyl)-methyl]-dimethylamine]	72%	–
COc1ccc(N2CCN(C(c3nc(Cc4ccccc4)c(N4CCCC4)o3)C3CCC(C(c4cccc(F)c4)N(C)C)CC3)CC2)cc1 (stereo not shown) [compound 123, [(4-{(4-benzyl-5-pyrrolidin-1-yl-oxazol-2-yl)-[4-(4-methoxyphenyl)-piperazin-1-yl]-methyl}-cyclohexyl)-(3-fluorophenyl)-methyl]-dimethylamine]	66%	–
COc1ccc(N2CCN(C(c3nc(Cc4ccccc4)c(N4CCOCC4)o3)C3CCC(C(c4cccc(F)c4)N(C)C)CC3)CC2)cc1 (stereo not shown) [compound 124, [(4-{(4-benzyl-5-morpholin-4-yl-oxazol-2-yl)-[4-(4-methoxyphenyl)-piperazin-1-yl]-methyl}-cyclohexyl)-(3-fluorophenyl)-methyl]-dimethylamine]	60%	–
CN(C)C(c1cccc(F)c1)C1CCC(C(c2nc(Cc3ccccc3)c(N3CCCC3)o2)N2CCc3ccccc3C2)CC1 (stereo not shown) [compound 125, [{4-[(4-benzyl-5-pyrrolidin-1-yl-oxazol-2-yl)-(3,4-dihydro-1H-isoquinolin-2-yl)-methyl]-cyclohexyl}-(3-fluorophenyl)-methyl]-dimethylamine]	83%	–
CN(C)C(c1cccc(F)c1)C1CCC(C(c2nc(Cc3ccccc3)c(N3CCOCC3)o2)N2CCc3ccccc3C2)CC1 (stereo not shown) [compound 126, [{4-[(4-benzyl-5-morpholin-4-yl-oxazol-2-yl)-(3,4-dihydro-1H-isoquinolin-2-yl)-methyl]-cyclohexyl}-(3-fluorophenyl)-methyl]-dimethylamine]	76%	–
COc1ccc(N2CCN(c3oc(C(C4CCC(C(c5cccc(F)c5)N(C)C)CC4)N4CCc5ccccc5C4)nc3Cc3ccccc3)CC2)cc1 (stereo not shown) [compound 127, [{4-[{4-benzyl-5-[4-(4-methoxy-phenyl)-piperazin-1-yl]-oxazol-2-yl}-(3,4-dihydro-1H-isoquinolin-2-yl)-methyl]-cyclohexyl}-(3-fluorophenyl)-methyl]-dimethylamine]	73%	–
CC1CN(c2oc(C(C3CCC(C(c4cccc(F)c4)N(C)C)CC3)N3CCc4ccccc4C3)nc2Cc2ccccc2)CC(C)O1 (stereo not shown) [compound 128, [{4-[[4-benzyl-5-(2,6-dimethyl-morpholin-4-yl)-oxazol-2-yl]-(3,4-dihydro-1H-isoquinolin-2-yl)-methyl]-cyclohexyl}-(3-fluorophenyl)-methyl]-dimethylamine]	71%	–
CN(C)C(c1ccc(Cl)cc1)C1CCC(C(c2nc(Cc3ccccc3)c(N3CCCC3)o2)N2CCOCC2)CC1 (stereo not shown) [compound 129, [{4-[(4-benzyl-5-pyrrolidin-1-yl-oxazol-2-yl)-morpholin-4-yl-methyl]-cyclohexyl}-(4-chlorophenyl)-methyl]-dimethylamine]	75%	–
CN(C)C(c1ccc(Cl)cc1)C1CCC(C(c2nc(Cc3ccccc3)c(N3CCOCC3)o2)N2CCOCC2)CC1 (stereo not shown) [compound 130, [{4-[(4-benzyl-5-morpholin-4-yl-oxazol-2-yl)-morpholin-4-yl-methyl]-cyclohexyl}-(4-chlorophenyl)-methyl]-dimethylamine]	77%	–
COc1ccc(N2CCN(c3oc(C(C4CCC(C(c5ccc(Cl)cc5)N(C)C)CC4)N4CCOCC4)nc3Cc3ccccc3)CC2)cc1 (stereo not shown) [compound 131, [[4-({4-benzyl-5-[4-(4-methoxyphenyl)-piperazin-1-yl]-oxazol-2-yl}-morpholin-4-yl-methyl)-cyclohexyl]-(4-chlorophenyl)-methyl]-dimethylamine]	64%	–
CC1CN(c2oc(C(C3CCC(C(c4ccc(Cl)cc4)N(C)C)CC3)N3CCOCC3)nc2Cc2ccccc2)CC(C)O1 (stereo not shown) [compound 132, [(4-{[4-benzyl-5-(2,6-dimethylmorpholin-4-yl)-oxazol-2-yl]-morpholin-4-yl-methyl}-cyclohexyl)-(4-chlorophenyl)-methyl]-dimethylamine]	64%	–
CN(C)C(c1ccc(Cl)cc1)C1CCC(C(c2nc(Cc3ccccc3)c(N3CCCC3)o2)N2CCN(c3ccc(F)cc3)CC2)CC1 (stereo not shown) [compound 133, [(4-{(4-benzyl-5-pyrrolidin-1-yl-oxazol-2-yl)-[4-(4-fluorophenyl)-piperazin-1-yl]-methyl}-cyclohexyl)-(4-chlorophenyl)-methyl]-dimethylamine]	64%	–
COc1ccc(N2CCN(C(c3nc(Cc4ccccc4)c(N4CCCC4)o3)C3CCC(C(c4ccc(Cl)cc4)N(C)C)CC3)CC2)cc1 (stereo not shown) [compound 134, [(4-{(4-benzyl-5-pyrrolidin-1-yl-oxazol-2-yl)-[4-(4-methoxyphenyl)-piperazin-1-yl]-methyl}-cyclohexyl)-(4-chlorophenyl)-methyl]-dimethylamine]	72%	–
COc1ccc(N2CCN(C(c3nc(Cc4ccccc4)c(N4CCOCC4)o3)C3CCC(C(c4ccc(Cl)cc4)N(C)C)CC3)CC2)cc1 (stereo not shown) [compound 135, [(4-{(4-benzyl-5-morpholin-4-yl-oxazol-2-yl)-[4-(4-methoxyphenyl)-piperazin-1-yl]-methyl}-cyclohexyl)-(4-chlorophenyl)-methyl]-dimethylamine]	70%	–
COc1ccc(N2CCN(C(c3nc(Cc4ccccc4)c(N4CC(C)OC(C)C4)o3)C3CCC(C(c4ccc(Cl)cc4)N(C)C)CC3)CC2)cc1 (stereo not shown) [compound 136, [(4-{[4-benzyl-5-(2,6-dimethylmorpholin-4-yl)-oxazol-2-yl]-[4-(4-methoxy-phenyl)-piperazin-1-yl]-methyl}-cyclohexyl)-(4-chlorophenyl)-methyl]-dimethylamine]	62%	–
CN(C)C(c1ccc(Cl)cc1)C1CCC(C(c2nc(Cc3ccccc3)c(N3CCCC3)o2)N2CCc3ccccc3C2)CC1 (stereo not shown) [compound 137, [{4-[(4-benzyl-5-pyrrolidin-1-yl-oxazol-2-yl)-(3,4-dihydro-1H-isoquinolin-2-yl)-methyl]-cyclohexyl}-(4-chlorophenyl)-methyl]-dimethylamine]	85%	–
CN(C)C(c1cccs1)C1CCC(C(c2nc(Cc3ccccc3)c(N3CCCC3)o2)N2CCOCC2)CC1 (stereo not shown) [compound 138, ({4-[(4-benzyl-5-pyrrolidin-1-yl-oxazol-2-yl)-morpholin-4-yl-methyl]-cyclohexyl}-thiophen-2-yl-methyl)-dimethylamine]	91%	–
CN(C)C(c1cccs1)C1CCC(C(c2nc(Cc3ccccc3)c(N3CCOCC3)o2)N2CCOCC2)CC1 (stereo not shown) [compound 139, ({4-[(4-benzyl-5-morpholin-4-yl-oxazol-2-yl)-morpholin-4-yl-methyl]-cyclohexyl}-thiophen-2-yl-methyl)-dimethylamine]	72%	–
COc1ccc(N2CCN(c3oc(C(C4CCC(C(c5cccs5)N(C)C)CC4)N4CCOCC4)nc3Cc3ccccc3)CC2)cc1 (stereo not shown) [compound 140, {[4-({4-benzyl-5-[4-(4-methoxyphenyl)-piperazin-1-yl]-oxazol-2-yl}-morpholin-4-yl-methyl)-cyclohexyl]-thiophen-2-yl-methyl}-dimethylamine]	67%	–
CC1CN(c2oc(C(C3CCC(C(c4cccs4)N(C)C)CC3)N3CCOCC3)nc2Cc2ccccc2)CC(C)O1 (stereo not shown) [compound 141, [(4-{[4-benzyl-5-(2,6-dimethylmorpholin-4-yl)-oxazol-2-yl]-morpholin-4-yl-methyl}-cyclohexyl)-thiophen-2-yl-methyl]-dimethylamine]	65%	–
CN(C)C(c1cccs1)C1CCC(C(c2nc(Cc3ccccc3)c(N3CCCC3)o2)N2CCN(c3ccc(F)cc3)CC2)CC1 (stereo not shown) [compound 142, [(4.-{(4-benzyl-5-pyrrolidin-1-yl-oxazol-2-yl)-[4-(4-fluorophenyl)-piperazin-1-yl]-me.thyl}-cyclohexyl)-thiophen-2-yl-methyl]-dimethylamine]	–	85%
COc1ccc(N2CCN(C(c3nc(Cc4ccccc4)c(N4CCCC4)o3)C3CCC(C(c4cccs4)N(C)C)CC3)CC2)cc1 (stereo not shown) [compound 143, [(4-{(4-benzyl-5-pyrrolidin-1-yl-oxazol-2-yl)-[4-(4-methoxyphenyl)-piperazin-1-yl]-methyl}-cyclohexyl)-thiophen-2-yl-methyl]-dimethylamine]	77%	–
COc1ccc(N2CCN(C(c3nc(Cc4ccccc4)c(N4CCOCC4)o3)C3CCC(C(c4cccs4)N(C)C)CC3)CC2)cc1 (stereo not shown) [compound 144, [(4-{(4-benzyl-5-morpholin-4-yl-oxazol-2-yl)-[4-(4-methoxy-phenyl)-piperazin-1-yl]-methyl}-cyclohexyl)-thiophen-2-yl-methyl]-dimethylamine]	64%	–
COc1ccc(N2CCN(C(c3nc(Cc4ccccc4)c(N4CC(C)OC(C)C4)o3)C3CCC(C(c4cccs4)N(C)C)CC3)CC2)cc1 (stereo not shown) [compound 145, [(4-{[4-benzyl-5-(2,6-dimethylmorpholin-4-yl)-oxazol-2-yl]-[4-(4-methoxy-phenyl)-piperazin-1-yl]-methyl}-cyclohexyl)-thiophen-2-yl-methyl]-dimethylamine]	69%	–
CN(C)C(c1cccs1)C1CCC(C(c2nc(Cc3ccccc3)c(N3CCCC3)o2)N2CCc3ccccc3C2)CC1 (stereo not shown) [compound 146, ({4-[(4-benzyl-5-pyrrolidin-1-yl-oxazol-2-yl)-(3,4-dihydro-1H-isoquinolin-2-yl)-methyl]-cyclohexyl}-thiophen-2-yl-methyl)-dimethylamine]	92%	–
